Assay [1] has as its target T1, full-length AR (endogenous, LNCaP) (Homo sapiens, UniProt P10275, T878A).
T1 construct: endogenous full-length AR of LNCaP cells
T1 sequence (P10275 1-920 T878A): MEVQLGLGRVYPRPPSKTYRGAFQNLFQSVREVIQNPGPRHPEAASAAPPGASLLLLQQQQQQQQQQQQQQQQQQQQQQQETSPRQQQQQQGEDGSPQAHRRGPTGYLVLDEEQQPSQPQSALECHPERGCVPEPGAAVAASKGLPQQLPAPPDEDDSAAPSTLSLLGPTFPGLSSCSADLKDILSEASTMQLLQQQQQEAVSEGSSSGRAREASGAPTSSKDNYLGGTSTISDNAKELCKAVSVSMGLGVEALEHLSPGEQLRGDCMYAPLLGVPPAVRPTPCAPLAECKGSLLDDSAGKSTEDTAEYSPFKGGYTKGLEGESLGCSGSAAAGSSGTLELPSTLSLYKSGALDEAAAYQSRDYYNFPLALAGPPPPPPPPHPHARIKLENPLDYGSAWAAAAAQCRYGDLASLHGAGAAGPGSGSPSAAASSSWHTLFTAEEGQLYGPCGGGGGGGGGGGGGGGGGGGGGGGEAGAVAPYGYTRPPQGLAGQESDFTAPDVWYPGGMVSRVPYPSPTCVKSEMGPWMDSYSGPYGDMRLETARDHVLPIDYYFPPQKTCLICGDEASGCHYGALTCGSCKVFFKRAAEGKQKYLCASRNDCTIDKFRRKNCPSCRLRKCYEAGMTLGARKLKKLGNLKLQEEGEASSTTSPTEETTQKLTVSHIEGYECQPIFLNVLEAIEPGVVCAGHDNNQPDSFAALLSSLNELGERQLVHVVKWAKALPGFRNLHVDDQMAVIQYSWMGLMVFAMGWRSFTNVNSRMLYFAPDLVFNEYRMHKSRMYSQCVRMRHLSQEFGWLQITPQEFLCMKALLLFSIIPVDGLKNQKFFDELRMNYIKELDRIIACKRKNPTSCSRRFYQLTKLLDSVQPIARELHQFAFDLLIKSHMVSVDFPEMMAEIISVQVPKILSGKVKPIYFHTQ
The assay is described as follows: PB-luciferase reporter in LNCaP cells. The class given is cell-based. The conditions noted are these: R1881-induced, serum-free, […] h; antagonist, AF-1 directed; covalent.

In a further assay the target is T2, AR AF-1 (Homo sapiens, UniProt P10275).
T2 construct: recombinant AF-1 region, residues 142-485
T2 sequence (P10275 143-486): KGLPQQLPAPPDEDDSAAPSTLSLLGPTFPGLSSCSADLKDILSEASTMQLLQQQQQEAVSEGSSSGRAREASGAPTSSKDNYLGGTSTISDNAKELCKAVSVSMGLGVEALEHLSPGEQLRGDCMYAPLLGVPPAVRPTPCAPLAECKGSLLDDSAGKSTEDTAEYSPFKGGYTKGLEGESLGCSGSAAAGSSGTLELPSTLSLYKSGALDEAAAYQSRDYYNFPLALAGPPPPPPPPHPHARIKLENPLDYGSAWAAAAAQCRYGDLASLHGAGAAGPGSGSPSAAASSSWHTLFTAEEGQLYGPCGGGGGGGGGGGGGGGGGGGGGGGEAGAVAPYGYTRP
Put plainly: Click-chemistry fluorescein labelling, SDS-PAGE. The settings on record: covalent; […] protein, […] probe, on ice […] min. It is filed as binding.

With `CCCCCCCCCCCCC(=O)/C=C/CCCOC[C@@H](O)CO` [(S)-niphatenone B], 5.7 ± 0.6 µM corresponded to half-maximal inhibition in assay [1] (IC50).
In the case of `C#CCOCC(O)COCCC/C=C/C(=O)CCCCCCCCCCCC` (stereo not drawn) [compound 44, niphatenone B 44], the “Click-chemistry fluorescein labelling, SDS-PAGE” value on AR AF-1 is “resulted in covalent binding to both AR AF-1 and GR AF-1 peptide”.
`CCCCCCCCCCCCC(=O)/C=C/CCCOC[C@H](O)CO` [(R)-niphatenone B]: the IC50 in assay [1] is 6.3 ± 0.5 µM.

Source of the values: publication PMC4182434, “Characterization of Niphatenones that Inhibit Androgen Receptor N-Terminal Domain” (PLoS ONE, 2014).
